Data as given in patent US11795510B2, “Identification of epigenomic reprogramming in cancer and uses thereof” (The Johns Hopkins University, priority 2016, dated 2023).
Entries after “also recorded” stand apart in the source; their conditions may differ.

Experiments:
Format in all cases: cell-based, human
[1] = test system: H3K9Me2, H3K27Ac, H3K27Me3 in LOCK regions of A38Lg; assay: ChIP-seq on control (DMSO) and 6AN-treated A38Lg cells; settings: DMSO vs. 6AN
Protocol: (§1) RNAi experiments were performed with siRNA transfections (Oligofectamine, Life Technologies) using negative control siRNA (Sigma, SIC001) and pre-designed siRNA oligonucleotides against indicated genes in parallel (Sigma, PGD: SASI_Hs02 00334150, CDH2: SASI_Hs01_00153995, TOP2B: SASI_Hs02_00311874). siRNAs against mutant KRAS^G12V (CUACGCCAACAGCUCCAAC) (SEQ ID NO:1) were custom designed. Cells were incubated with siRNAs for 4 days after transfection and harvested. For drug treatments in 2-D, cells were grown to 70-80% confluency and treated for 3 days with 250 uM 6AN or DMSO negative control.
Tests for statistical significance (two-tailed students t-test) were performed on data collected from technical replicate (performed in parallel at the same time) or biological replicate (performed at different times) experiments as indicated in the figure legends using excel software for western blot densitometry, MTT assays, and tumor measurements. Whole genome bisulfite sequencing and RNA-seq were performed with HiSeq instruments (Illumina) as described in Hansen et al. (Increased methylation variation in epigenetic domains across cancer types. Nat Genet 43, 768-75 (2011)). ChIP assays were performed as previously described for fixed cells with sonication. For ChIP-qPCR, equal amounts of paired input/IP DNA were amplified by real-time PCR (Roche LightCycler96) and fold enrichments calculated. Primer sequences are listed in Supplementary Table 11. […] IP sequencing reads were normalized to their corresponding inputs. […]
Chip-seq data processing. For 46 bp paired-end Illumina HiSeq2000 sequencing data, reads were aligned against human genome (hg19) using BWA with default parameters as described in Li et al. (Fast and accurate short read alignment with Burrows-Wheeler transform. Bioinformatics 25, 1754-60 (2009)). After alignment, duplicate reads were removed and only uniquely aligned reads were kept for further analysis. For 48 bp single-end Solid sequencing data, reads were aligned using Bowtie^7 with default parameters and only uniquely aligned reads were kept for further analysis. […]

[2] = test system: distant metastatic subclones; assay: 3-D suspension tumorsphere assay, distant metastatic subclones
Protocol: 3-D matrigel assays were adapted from Cheung et al. (Control of alveolar differentiation by the lineage transcription factors GATA6 and HOPX inhibits lung adenocarcinoma metastasis. Cancer Cell 23, 725-38 (2013)). Briefly, 2-D cultures were trypsinized into single cells, 4,000cells/mL were suspended and thoroughly mixed in ice-cold DMEM containing 5% matrigel (BD systems) and 2% FBS (+/−DMSO/6AN as needed), 500 ul plated in quadruplicate into 24 well ultra-low attachment plates, and incubated for at least 7 days to allow tumor growth. Well-formed tumors were then counted and representative photographs taken with an EVOS instrument. 3-D suspension tumorsphere assays were performed with 20,000 starting cells/well in ultra-low attachment 6 well plates as described, and tumors counted/photographed after at least 7 days of tumor growth.

A38Lg cells = assay: RNA-seq of control (DMSO) and 6AN treated cells, differentially expressed genes
Protocol: as §1
Tests for statistical significance (two-tailed students t-test) were performed on data collected from technical replicate (performed in parallel at the same time) or biological replicate (performed at different times) experiments as indicated in the figure legends using excel software for western blot densitometry, MTT assays, and tumor measurements. Whole genome bisulfite sequencing and RNA-seq were performed with HiSeq instruments (Illumina) as described in Hansen et al. (Increased methylation variation in epigenetic domains across cancer types. Nat Genet 43, 768-75 (2011)). ChIP assays were performed as previously described for fixed cells with sonication. For ChIP-qPCR, equal amounts of paired input/IP DNA were amplified by real-time PCR (Roche LightCycler96) and fold enrichments calculated. Primer sequences are listed in Supplementary Table 11. […] IP sequencing reads were normalized to their corresponding inputs. Sequencing procedures, bioinformatics methods including domain calls, and statistical analyses are described in detail within the supplementary methods section.
RNA-Seq data processing. 100 bp paired-end HiSeq2000 sequencing reads were aligned against human genome (hg19) by OSA (version 2.0.1) with default parameters. After alignment, only uniquely aligned reads were kept for further analysis. Gene annotation information was downloaded from ENSEMBL (ensembl.com, release 66). Reads count for each gene of all samples were estimated using HTSeq (huber.embl.de/users/anders/HTSeq/doc/overview.html) and then were used to identify differentially expressed (DE) genes using DESeq package. Genes with FDR<0.01 and fold-change>1.5 were considered DE genes.

[3] = genes down in A38Lg vs A38Per and down in 6AN vs DMSO treated A38Lg, RNA-seq DE genes
[4] = genes down in A38Lg vs A38Per and up in 6AN vs DMSO treated A38Lg, RNA-seq DE genes
[5] = genes recurrently down vs. A38Per and down in 6AN treated A38Lg cells, out of all 6AN down genes
[6] = genes recurrently down vs. A38Per and down in 6AN treated A38Lg cells, out of all recurrent down genes
[7] = genes recurrently down vs. A38Per and up in 6AN treated A38Lg cells, out of all 6AN up genes
[8] = genes recurrently down vs. A38Per and up in 6AN treated A38Lg cells, out of all recurrent down genes
[9] = genes recurrently up across all samples vs. A38Per and down in 6AN vs. DMSO treated A38Lg cells, out of all 6AN down genes
[10] = genes recurrently up vs. A38Per and down in 6AN treated A38Lg cells, out of all recurrent up genes
[11] = genes recurrently up vs. A38Per and up in 6AN treated A38Lg cells, out of all recurrent up genes
[12] = genes up in A38Lg vs A38Per and down in 6AN vs DMSO treated A38Lg, RNA-seq DE genes
[13] = genes up in A38Lg vs A38Per and up in 6AN vs DMSO treated A38Lg, RNA-seq DE genes

NC(=O)c1ccc(N)nc1 [6AN, 6-aminonicotinamide]
H3K27Ac at genes repressed from LOCKs (ChIP-seq) [1]: reduced | LOCK-wide H3K9Me2 from reprogrammed regions (ChIP-seq) [1]: quantitative increase | levels of H3K27Me3 (ChIP-seq) [1]: remained stable; also recorded: unchanged | tumor formation in 3-D suspension tumorsphere assays [2]: selectively and strongly blocked tumor formation; also recorded: ablated tumor formation | Coregulated/6AN down (38Lg down/6AN down): coregulated genes / all 6AN down genes (A38Lg cells; [3]): 277/1968 | Coregulated/38Lg down (38Lg down/6AN down): coregulated genes / all 38Lg down genes (A38Lg cells; [3]): 277/4402 | Coregulated/6AN down (38Lg down/6AN down), percent (A38Lg cells; genes down in A38Lg vs A38Per and down in 6AN vs DMSO treated A38Lg, share of 6AN down genes): (14%) | Coregulated/38Lg down (38Lg down/6AN down), percent (A38Lg cells; genes down in A38Lg vs A38Per and down in 6AN vs DMSO treated A38Lg, share of 38Lg down genes): (0.06%) | Coregulated/6AN up (38Lg down/6AN up): coregulated genes / all 6AN up genes (A38Lg cells; [4]): 915/2192 | Coregulated/38Lg down (38Lg down/6AN up): coregulated genes / all 38Lg down genes (A38Lg cells; [4]): 915/4402 | Coregulated/6AN up (38Lg down/6AN up), percent (A38Lg cells; genes down in A38Lg vs A38Per and up in 6AN vs DMSO treated A38Lg, share of 6AN up genes): (42%) | Coregulated/38Lg down (38Lg down/6AN up), percent (A38Lg cells; genes down in A38Lg vs A38Per and up in 6AN vs DMSO treated A38Lg, share of 38Lg down genes): (21%) | Recurrent Down/6AN Down: Coregulated/6AN down (gene count ratio) (A38Lg cells; [5]): 111/1968 | Recurrent Down/6AN Down: Coregulated/6AN down (percent) (A38Lg cells; [5]): (0.06%) | Recurrent Down/6AN Down: Coregulated/Recurrent down (gene count ratio) (A38Lg cells; [6]): 111/1842 | Recurrent Down/6AN Down: Coregulated/Recurrent down (percent) (A38Lg cells; [6]): (0.06%) | Recurrent Down/6AN Up: Coregulated/6AN up (gene count ratio) (A38Lg cells; [7]): 332/2192 | Recurrent Down/6AN Up: Coregulated/6AN up (percent) (A38Lg cells; [7]): (15%) | Recurrent Down/6AN Up: Coregulated/Recurrent down (gene count ratio) (A38Lg cells; [8]): 332/1842 | Recurrent Down/6AN Up: Coregulated/Recurrent down (percent) (A38Lg cells; [8]): (18%) | Recurrent Up/6AN Down: Coregulated/6AN down (gene count ratio) (A38Lg cells; [9]): 255/1968 | Recurrent Up/6AN Down: Coregulated/6AN down (percent) (A38Lg cells; [9]): (13%) | Recurrent Up/6AN Down: Coregulated/Recurrent up (gene count ratio) (A38Lg cells; [10]): 255/891 | Recurrent Up/6AN Down: Coregulated/Recurrent up (percent) (A38Lg cells; [10]): (28.6%) | Recurrent Up/6AN Up: Coregulated/6AN up (gene count ratio) (A38Lg cells; genes recurrently up vs. A38Per and up in 6AN treated A38Lg cells, out of all 6AN up genes): 82/2192 | Recurrent Up/6AN Up: Coregulated/Recurrent up (gene count ratio) (A38Lg cells; [11]): 82/891 | Recurrent Up/6AN Up: Coregulated/Recurrent up (percent) (A38Lg cells; [11]): (9%) | Coregulated/6AN down (38Lg up/6AN down): coregulated genes / all 6AN down genes (A38Lg cells; [12]): 1032/1968 | Coregulated/38Lg up (38Lg up/6AN down): coregulated genes / all 38Lg up genes (A38Lg cells; [12]): 1032/4368 | Coregulated/6AN down (38Lg up/6AN down), percent (A38Lg cells; genes up in A38Lg vs A38Per and down in 6AN vs DMSO treated A38Lg, share of 6AN down genes): (52%) | Coregulated/38Lg up (38Lg up/6AN down), percent (A38Lg cells; genes up in A38Lg vs A38Per and down in 6AN vs DMSO treated A38Lg, share of 38Lg up genes): (24%) | Coregulated/6AN up (38Lg up/6AN up): coregulated genes / all 6AN up genes (A38Lg cells; [13]): 379/2192 | Coregulated/38Lg up (38Lg up/6AN up): coregulated genes / all 38Lg up genes (A38Lg cells; [13]): 379/4368 | Coregulated/6AN up (38Lg up/6AN up), percent (A38Lg cells; genes up in A38Lg vs A38Per and up in 6AN vs DMSO treated A38Lg, share of 6AN up genes): (17%) | Coregulated/38Lg up (38Lg up/6AN up), percent (A38Lg cells; genes up in A38Lg vs A38Per and up in 6AN vs DMSO treated A38Lg, share of 38Lg up genes): (0.09%)
